Assay results reported in PMC9095486, “Reversible RNA phosphorylation stabilizes tRNA for cellular thermotolerance” (Nature, 2022).

Tests used:
TkArkI [1] = biological target: T1, TkArkI (Thermococcus kodakarensis, UniProt Q5JDQ4); test: LC-MS of ligands extracted from purified protein; type: binding; conditions: co-purified from E. coli
T1 construct: gene TK2051; full length, codon-optimised synthetic gene in pE-SUMO-TEV, E. coli; His6-SUMO tag cleaved by Ulp1; residues 1-216 described in structure
T1 sequence (Q5JDQ4 entry or part of it): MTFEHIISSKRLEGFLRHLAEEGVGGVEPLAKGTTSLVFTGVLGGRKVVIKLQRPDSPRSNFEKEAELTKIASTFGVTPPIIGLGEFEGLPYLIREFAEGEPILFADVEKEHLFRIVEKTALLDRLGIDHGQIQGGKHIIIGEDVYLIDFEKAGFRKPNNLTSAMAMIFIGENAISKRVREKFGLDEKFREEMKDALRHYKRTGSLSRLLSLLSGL

TkArkI [2] = biological target: T1, TkArkI; test: X-ray crystallography, […] Å; LC-MS of bound ligand; conditions: co-purified from E. coli; putative ATP-binding pocket

| Structure (SMILES) | LC-MS of ligands extracted from purified protein (TkArkI [1]) | X-ray crystallography, 1.8 Å; LC-MS of bound ligand (TkArkI [2]) |
| --- | --- | --- |
| Nc1nc2c(ncn2[C@H]2C[C@H](O)[C@@H](CO)O2)c(=O)[nH]1 [deoxyguanosine] | We confirmed guanosine (and deoxyguanosine) as a ligand that tightly binds to TkArkI | – |
| Nc1nc2c(ncn2[C@@H]2O[C@H](CO)[C@@H](O)[C@H]2O)c(=O)[nH]1 [guanosine] | – | we observed a clear electron density for guanosine in the cleft of the two lobes |
